{
  "source": "paper PMC12188386",
  "about": "“Selective CBP/EP300 Bromodomain Inhibitors: Novel Epigenetic Tools to Counter TNF-α-Driven Inflammation” (JACS Au, 2025)",
  "assay_in_all_cases": "NCI-60 one-dose screen",
  "type_in_all_cases": "cell-based, human",
  "key": {"[1]": {"system": "CCRF-CEM", "conditions": "10 µM, 48 h, Leukemia, relative to no-drug control and time zero", "method": "(§1) Adapted from NCI-60 Screening Methodology, one-dose screen:20 Briefly, human tumor cell lines, grown in RPMI 1640 containing 5% FBS and 2 mM L-glutamine, were plated in 96 well plates at densities ranging from 5,000 to 40,000 cells/well 24 h prior to addition of test compounds (here 10 μM 2). 400x solutions of test compounds were prepared in DMSO, then diluted to 2x in medium supplemented with 50 μg/mL gentamicin. 100 μl of this 2x stock was added to cells previously plated in 100 μl medium, resulting in the desired final compound concentration. Cells were fixed in situ with cold TCA: untreated cells at the time of compound addition (Tz) and treated cells 48 h after addition of compound (Ti). Cells were washed, then su f rh damine s uti n μ at . w/v in acetic acid was added to each well and incubated for 10 minutes at room temperature. After washing again, the plates were air dried and bound stain solubilized with 10 mM Trizma base before absorbance was […]\n(§2) Percentage growth (%Growth) was calculated as follows:\n(§3) when Ti ≥ Tz, %Growth = Ti − Tz x 100 where Ti = absorbance from compound treated cells, Tz = absorbance from untreated cells at time zero, and C = absorbance from control (DMSO) treated cells. […]"}, "[2]": {"system": "A549/ATCC", "conditions": "10 µM, 48 h, Non-Small Cell Lung Cancer", "method": "as §1, §2, §3"}, "[3]": {"system": "OVCAR-3", "conditions": "10 µM, 48 h, Ovarian Cancer", "method": "as §1, §2, §3"}, "[4]": {"system": "HS 578T", "conditions": "10 µM, 48 h, Breast Cancer", "method": "as §1, §2, §3"}, "[5]": {"system": "LOX IMVI", "conditions": "10 µM, 48 h, Melanoma", "method": "as §1, §2, §3"}, "[6]": {"system": "M14", "conditions": "10 µM, 48 h, Melanoma", "method": "as §1, §2, §3"}, "[7]": {"system": "NCI-H322M", "conditions": "10 µM, 48 h, Non-Small Cell Lung Cancer", "method": "as §1, §2, §3"}, "[8]": {"system": "RXF 393", "conditions": "10 µM, 48 h, Renal Cancer, values <0 indicate lethality", "method": "as §1, §2, §3"}, "[9]": {"system": "RPMI-8226", "conditions": "10 µM, 48 h, Leukemia", "method": "as §1, §2, §3"}, "[10]": {"system": "NCI/ADR-RES", "conditions": "10 µM, 48 h, Ovarian Cancer", "method": "as §1, §2, §3"}, "[11]": {"system": "NCI-H23", "conditions": "10 µM, 48 h, Non-Small Cell Lung Cancer", "method": "as §1, §2, §3"}, "[12]": {"system": "SK-MEL-5", "conditions": "10 µM, 48 h, Melanoma, values <0 indicate lethality", "method": "as §1, §2, §3"}, "[13]": {"system": "SF-295", "conditions": "10 µM, 48 h, CNS Cancer", "method": "as §1, §2, §3"}, "[14]": {"system": "CAKI-1", "conditions": "10 µM, 48 h, Renal Cancer", "method": "as §1, §2, §3"}, "[15]": {"system": "SNB-19", "conditions": "10 µM, 48 h, CNS Cancer", "method": "as §1, §2, §3"}, "[16]": {"system": "HOP-92", "conditions": "10 µM, 48 h, Non-Small Cell Lung Cancer", "method": "as §1, §2, §3"}, "[17]": {"system": "HCT-116", "conditions": "10 µM, 48 h, Colon Cancer", "method": "as §1, §2, §3"}, "[18]": {"system": "MDA-MB-468", "conditions": "10 µM, 48 h, Breast Cancer, values <0 indicate lethality", "method": "as §1, §2, §3"}, "[19]": {"system": "TK-10", "conditions": "10 µM, 48 h, Renal Cancer", "method": "as §1, §2, §3"}, "[20]": {"system": "SK-MEL-2", "conditions": "10 µM, 48 h, Melanoma", "method": "as §1, §2, §3"}, "[21]": {"system": "SF-539", "conditions": "10 µM, 48 h, CNS Cancer", "method": "as §1, §2, §3"}, "[22]": {"system": "SNB-75", "conditions": "10 µM, 48 h, CNS Cancer", "method": "as §1, §2, §3"}, "[23]": {"system": "HCC-2998", "conditions": "10 µM, 48 h, Colon Cancer", "method": "as §1, §2, §3"}, "[24]": {"system": "A498", "conditions": "10 µM, 48 h, Renal Cancer", "method": "as §1, §2, §3"}, "[25]": {"system": "IGROV1", "conditions": "10 µM, 48 h, Ovarian Cancer", "method": "as §1, §2, §3"}, "[26]": {"system": "OVCAR-4", "conditions": "10 µM, 48 h, Ovarian Cancer", "method": "as §1, §2, §3"}, "[27]": {"system": "HCT-15", "conditions": "10 µM, 48 h, Colon Cancer", "method": "as §1, §2, §3"}, "[28]": {"system": "SK-MEL-28", "conditions": "10 µM, 48 h, Melanoma", "method": "as §1, §2, §3"}, "[29]": {"system": "MCF7", "conditions": "10 µM, 48 h, Breast Cancer", "method": "as §1, §2, §3"}, "[30]": {"system": "NCI-H226", "conditions": "10 µM, 48 h, Non-Small Cell Lung Cancer", "method": "as §1, §2, §3"}, "[31]": {"system": "K-562", "conditions": "10 µM, 48 h, Leukemia", "method": "as §1, §2, §3"}, "[32]": {"system": "MALME-3M", "conditions": "10 µM, 48 h, Melanoma", "method": "as §1, §2, §3"}, "[33]": {"system": "HOP-62", "conditions": "10 µM, 48 h, Non-Small Cell Lung Cancer", "method": "as §1, §2, §3"}, "[34]": {"system": "UO-31", "conditions": "10 µM, 48 h, Renal Cancer", "method": "as §1, §2, §3"}, "[35]": {"system": "EKVX", "conditions": "10 µM, 48 h, Non-Small Cell Lung Cancer", "method": "as §1, §2, §3"}, "[36]": {"system": "HT29", "conditions": "10 µM, 48 h, Colon Cancer", "method": "as §1, §2, §3"}, "[37]": {"system": "MDA-MB-435", "conditions": "10 µM, 48 h, Melanoma, values <0 indicate lethality", "method": "as §1, §2, §3"}, "[38]": {"system": "786-0", "conditions": "10 µM, 48 h, Renal Cancer", "method": "as §1, §2, §3"}, "[39]": {"system": "SW-620", "conditions": "10 µM, 48 h, Colon Cancer", "method": "as §1, §2, §3"}, "[40]": {"system": "NCI-H460", "conditions": "10 µM, 48 h, Non-Small Cell Lung Cancer", "method": "as §1, §2, §3"}, "[41]": {"system": "SN12C", "conditions": "10 µM, 48 h, Renal Cancer", "method": "as §1, §2, §3"}, "[42]": {"system": "ACHN", "conditions": "10 µM, 48 h, Renal Cancer", "method": "as §1, §2, §3"}},
  "data": [
    {"smiles": "Cc1cc2c(NC(=O)c3cc(NC(=O)c4ccco4)cc(-c4ccn(C)n4)c3)cccc2nn1", "note": "[Compound 2]", "values": [
      {"measurement": "%Growth", "setting": "[1]", "value": 43, "unit": "%"},
      {"measurement": "%Growth", "setting": "[2]", "value": 61, "unit": "%"},
      {"measurement": "%Growth", "setting": "[3]", "value": 23, "unit": "%"},
      {"measurement": "%Growth", "setting": "[4]", "value": 19, "unit": "%"},
      {"measurement": "%Growth", "setting": "[5]", "value": 34, "unit": "%"},
      {"measurement": "%Growth", "setting": "[6]", "value": 25, "unit": "%"},
      {"measurement": "%Growth", "setting": "[7]", "value": 86, "unit": "%"},
      {"measurement": "%Growth", "setting": "[8]", "value": -5, "unit": "%"},
      {"measurement": "%Growth", "setting": "[9]", "value": 32, "unit": "%"},
      {"measurement": "%Growth", "setting": "[10]", "value": 91, "unit": "%"},
      {"measurement": "%Growth", "setting": "[11]", "value": 71, "unit": "%"},
      {"measurement": "%Growth", "setting": "[12]", "value": -36, "unit": "%"},
      {"measurement": "%Growth", "setting": "[13]", "value": 42, "unit": "%"},
      {"measurement": "%Growth", "setting": "[14]", "value": 22, "unit": "%"},
      {"measurement": "%Growth", "setting": "[15]", "value": 66, "unit": "%"},
      {"measurement": "%Growth", "setting": "[16]", "value": 63, "unit": "%"},
      {"measurement": "%Growth", "setting": "[17]", "value": 38, "unit": "%"},
      {"measurement": "%Growth", "setting": "[18]", "value": -19, "unit": "%"},
      {"measurement": "%Growth", "setting": "[19]", "value": 78, "unit": "%"},
      {"measurement": "%Growth", "setting": "[20]", "value": 18, "unit": "%"},
      {"measurement": "%Growth", "setting": "[21]", "value": 44, "unit": "%"},
      {"measurement": "%Growth", "setting": "[22]", "value": 27, "unit": "%"},
      {"measurement": "%Growth", "setting": "[23]", "value": 66, "unit": "%"},
      {"measurement": "%Growth", "setting": "[24]", "value": 91, "unit": "%"},
      {"measurement": "%Growth", "setting": "[25]", "value": 54, "unit": "%"},
      {"measurement": "%Growth", "setting": "[26]", "value": 63, "unit": "%"},
      {"measurement": "%Growth", "setting": "[27]", "value": 64, "unit": "%"},
      {"measurement": "%Growth", "setting": "[28]", "value": 68, "unit": "%"},
      {"measurement": "%Growth", "setting": "[29]", "value": 22, "unit": "%"},
      {"measurement": "%Growth", "setting": "[30]", "value": 49, "unit": "%"},
      {"measurement": "%Growth", "setting": "[31]", "value": 29, "unit": "%"},
      {"measurement": "%Growth", "setting": "[32]", "value": 40, "unit": "%"},
      {"measurement": "%Growth", "setting": "[33]", "value": 67, "unit": "%"},
      {"measurement": "%Growth", "setting": "[34]", "value": 43, "unit": "%"},
      {"measurement": "%Growth", "setting": "[35]", "value": 63, "unit": "%"},
      {"measurement": "%Growth", "setting": "[36]", "value": 21, "unit": "%"},
      {"measurement": "%Growth", "setting": "[37]", "value": -47, "unit": "%"},
      {"measurement": "%Growth", "setting": "[38]", "value": 57, "unit": "%"},
      {"measurement": "%Growth", "setting": "[39]", "value": 52, "unit": "%"},
      {"measurement": "%Growth", "setting": "[40]", "value": 18, "unit": "%"},
      {"measurement": "%Growth", "setting": "[41]", "value": 63, "unit": "%"},
      {"measurement": "%Growth", "setting": "[42]", "value": 73, "unit": "%"}
    ]}
  ]
}
